From ChEMBL document CHEMBL5260828, “Amphiphilic glycoconjugates as potential anti-cancer chemotherapeutics” (Eur J Med Chem, 2018) come the findings set out here.

Each structure is given as a SMILES string. Converted amounts (≈) assume the structure as drawn.

Data set [1] relates to Jurkat. The data set can be described thus: Cytotoxicity against human Jurkat cells incubated for 16 hrs by MTS colorimetric assay. The data set is classed as functional, cell-based. On the technique in general: Formazan colour is commonly taken as a measure of viable cells.
The next data set concerns NCI-H187. The data set can be described thus: Cytotoxicity against human NCI-H187 cells incubated for 48 hrs by SRB colorimetric assay. The settings on record: NCI-H187, 48 h. The data set is classed as functional, cell-based. (In SRB staining, fixed cells bind dye roughly in proportion to their protein.)
In the next data set the test system is KB. Put plainly: Cytotoxicity against human KB cells incubated for 48 hrs by SRB colorimetric assay. The data set is classed as functional, cell-based.
Another data set has as its system BC1 cell line. The data set can be described thus: Cytotoxicity against human BC1 cell line incubated for 48 hrs by SRB colorimetric assay. The data set is classed as functional, cell-based. The settings on record: BC1, 48 h.
A short description of data set [2]: Cytotoxicity against African green monkey Vero cells incubated for 48 hrs by SRB colorimetric assay. The data set is classed as toxicity, cell-based, Chlorocebus sabaeus.
The next data set concerns SW1573. The data set can be described thus: Antiproliferative activity against human SW1573 cells assessed as inhibition of cell proliferation incubated for 48 hrs by SRB assay. The data set is classed as functional, cell-based. The conditions noted are these: SW1573, 48 h.
The subject of data set [3] is HeLa. Put plainly: Antiproliferative activity against human HeLa cells assessed as inhibition of cell proliferation incubated for 48 hrs by SRB assay. The data set is classed as functional, cell-based.
The test system of another data set is HBL-100. The data set can be described thus: Antiproliferative activity against human HBL-100 cells assessed as inhibition of cell proliferation incubated for 48 hrs by SRB assay. The data set is classed as functional, cell-based. The conditions noted are these: HBL-100, 48 h.
The next data set has as its system A549. The data set can be described thus: Antiproliferative activity against human A549 cells assessed as inhibition of cell proliferation incubated for 48 hrs by SRB assay. The data set is classed as functional, cell-based. The conditions noted are these: A549, 48 h.
The next data set has as its system T47D. The data set can be described thus: Antiproliferative activity against human T47D cells assessed as inhibition of cell proliferation incubated for 48 hrs by SRB assay. The data set is classed as functional, cell-based.
A further data set has as its system WiDr. Put plainly: Antiproliferative activity against human WiDr cells assessed as inhibition of cell proliferation incubated for 48 hrs by SRB assay. The data set is classed as functional, cell-based.
Another data set concerns HL-60. Put plainly: Induction of apoptosis in human HL-60 cells at 5 uM incubated for 24 hrs by Annexin V-FITC/PI based flow cytometric analysis. The data set is classed as functional.
Data set [4] deals with Jurkat. Put plainly: Cytotoxicity against human Jurkat cells incubated for 18 hrs by MTS assay. The data set is classed as functional.
Data set [5] relates to HeLa. Put plainly: Cytotoxicity against human HeLa cells assessed as reduction of cell viability incubated for 48 hrs by MTT assay. The data set is classed as functional, cell-based.
A further data set has as its system MRC5. The data set can be described thus: Cytotoxicity against human MRC5 cells. The data set is classed as functional, cell-based.
A further data set concerns SAOS-2. The data set can be described thus: Cytotoxicity against human SAOS-2 cells. The data set is classed as functional, cell-based.
For another data set, the system named is SW480. The data set can be described thus: Cytotoxicity against human SW480 cells. The data set is classed as functional, cell-based.
The subject of a further data set is HT-29. The data set can be described thus: Cytotoxicity against human HT-29 cells. The data set is classed as functional, cell-based.
In another data set the test system is HFF. Put plainly: Cytotoxicity against human HFF cells. The data set is classed as functional, cell-based.
A further data set relates to DLD-1. The data set can be described thus: Cytotoxicity against human DLD-1 cells. The data set is classed as functional, cell-based.
The test system of the next data set is NCI-H460. Put plainly: Cytotoxicity against human NCI-H460 cells. The data set is classed as functional, cell-based.
For the next data set, the system named is NCI-H23. The data set can be described thus: Growth inhibition of human NCI-H23 cells. The data set is classed as functional.
A further data set deals with NUGC-3. The data set can be described thus: Growth inhibition of human NUGC-3 cells. The data set is classed as functional.

For the compound `CCCCCCCCCCCCCCCCn1cc(CO[C@@H]2O[C@H](CO)[C@@H](O)[C@H](O)[C@H]2O)nn1`, in the data set with Jurkat [1], it took 24 µM to reach half-maximal inhibition (IC50).

For `CO[C@H]1[C@H](O)[C@@H](O)[C@H](O[C@H](C[C@@]2(C)[C@H](C)CCC(=O)[C@@H]2C)/C(C)=C/Cc2c(O)c(Cl)c(C)c(C=O)c2O)O[C@@H]1CO`, the IC50 turned out to be 7.9 µg/mL (≈ 13.2 µM) in the data set on NCI-H187, 19 µg/mL (≈ 31.7 µM) in the data set with KB and 8.4 µg/mL (≈ 14 µM) in the data set with BC1 cell line. In [2], this compound came in with an IC50 at 48 h of 6.9 µg/mL (≈ 11.5 µM).

Consider `CCCCCCCCN[C@@H]1[C@H](O)[C@@H](O)[C@@H](O)[C@H]2COC(=O)N21`, for which the IC50 with SW1573, in the data set with HeLa [3], in the data set on HBL-100, in the data set on A549, in the data set on T47D and in the data set with WiDr was 30 µM each time.

In the data set with HL-60, `C[C@@H](N)[C@H](O)CCCCCCCCCCCCCCC(=O)CCCCCCC[C@@H](O)[C@@H](C)N` returned an Activity of 93%.

As to `CCCCCCCCCCCCn1cc(CO[C@@H]2OC[C@@H](O)[C@H](O)[C@H]2O)nn1`, the midpoint of cytotoxicity in the data set on Jurkat [4], the CC50, lay at 26 µM.

Take `CCCCCCCCCCCCCCCC(=O)OCc1cn([C@@H]2O[C@H](CO)[C@@H](O)[C@H](O)[C@H]2O)nn1`: the IC50 in the data set with HeLa [5] amounted to 121 µM.

Turning to `C[C@@H](N)[C@H](O)CCCCCCCC(=O)CCCCCCCCCCCCCC[C@H](O)[C@H](N)CO[C@@H]1O[C@H](CO)[C@@H](O)[C@H](O)[C@H]1O`, the IC50 in the data set on MRC5, with SAOS-2, in the data set with SW480, in the data set with HT-29, in the data set with HFF and with DLD-1 was 3 µg/mL (≈ 4.62 µM) each time. The compound further had an IC50 in the data set with NCI-H460 of 3 µg/mL (≈ 4.62 µM).

Regarding `CC(C)[C@H](CCCCCCCCCCCCC(=O)NCC(=O)O)O[C@@H]1O[C@H](COC(=O)CCC(=O)O)[C@@H](O)[C@H](O)[C@H]1O`, the GI50 with NCI-H23 came out at 25.2 µg/mL (≈ 41.6 µM); in the data set on NUGC-3, 17.8 µg/mL (≈ 29.4 µM).

As usually defined, the IC50 is the point on the concentration scale where inhibition reaches its midpoint. The CC50 is the concentration that lowers cell viability or growth by half. A word on the GI50: it is the concentration at which growth is held to half of that of the control.
